The record followed here is patent publication US12649750B2, “Macrocyclic compounds, compositions, and methods of using thereof” (Sionna Therapeutics Inc., priority 2022, dated 2026).

In one experiment the target is T1, NBD1 (Homo sapiens, UniProt P13569).
T1 construct: Purified recombinant NBD1 was produced using previously described methods; made in house
Kind of experiment: Aggregation analysis using differential static light scattering (DSLS), thermal stability of NBD1 (ΔTagg). Format: binding. To be noted: ΔTagg versus DMSO control, NBD1 0.2 mg/ml. The procedure, abridged: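 Read-out is ΔTagg: the aggregation temperature, taken at the inflection of the light-scattering curve, less the average of DMSO control wells. Recombinant NBD1 (0.2 mg/ml, pH7.6 buffer containing 2 mM ATP) with test compound was heated at 1° C. per minute up to 70° C.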

In a further experiment the target is T2, CFTR (Homo sapiens, UniProt P13569, DEL508-508).
T2 construct: Primary human bronchial epithelial cells from a ΔF508 homozygous CF donor; host or cells: primary human bronchial epithelial cells (CF-HBE), ΔF508 homozygous donor
T2 sequence (P13569 with tags, fused parts or gaps DEL508-508): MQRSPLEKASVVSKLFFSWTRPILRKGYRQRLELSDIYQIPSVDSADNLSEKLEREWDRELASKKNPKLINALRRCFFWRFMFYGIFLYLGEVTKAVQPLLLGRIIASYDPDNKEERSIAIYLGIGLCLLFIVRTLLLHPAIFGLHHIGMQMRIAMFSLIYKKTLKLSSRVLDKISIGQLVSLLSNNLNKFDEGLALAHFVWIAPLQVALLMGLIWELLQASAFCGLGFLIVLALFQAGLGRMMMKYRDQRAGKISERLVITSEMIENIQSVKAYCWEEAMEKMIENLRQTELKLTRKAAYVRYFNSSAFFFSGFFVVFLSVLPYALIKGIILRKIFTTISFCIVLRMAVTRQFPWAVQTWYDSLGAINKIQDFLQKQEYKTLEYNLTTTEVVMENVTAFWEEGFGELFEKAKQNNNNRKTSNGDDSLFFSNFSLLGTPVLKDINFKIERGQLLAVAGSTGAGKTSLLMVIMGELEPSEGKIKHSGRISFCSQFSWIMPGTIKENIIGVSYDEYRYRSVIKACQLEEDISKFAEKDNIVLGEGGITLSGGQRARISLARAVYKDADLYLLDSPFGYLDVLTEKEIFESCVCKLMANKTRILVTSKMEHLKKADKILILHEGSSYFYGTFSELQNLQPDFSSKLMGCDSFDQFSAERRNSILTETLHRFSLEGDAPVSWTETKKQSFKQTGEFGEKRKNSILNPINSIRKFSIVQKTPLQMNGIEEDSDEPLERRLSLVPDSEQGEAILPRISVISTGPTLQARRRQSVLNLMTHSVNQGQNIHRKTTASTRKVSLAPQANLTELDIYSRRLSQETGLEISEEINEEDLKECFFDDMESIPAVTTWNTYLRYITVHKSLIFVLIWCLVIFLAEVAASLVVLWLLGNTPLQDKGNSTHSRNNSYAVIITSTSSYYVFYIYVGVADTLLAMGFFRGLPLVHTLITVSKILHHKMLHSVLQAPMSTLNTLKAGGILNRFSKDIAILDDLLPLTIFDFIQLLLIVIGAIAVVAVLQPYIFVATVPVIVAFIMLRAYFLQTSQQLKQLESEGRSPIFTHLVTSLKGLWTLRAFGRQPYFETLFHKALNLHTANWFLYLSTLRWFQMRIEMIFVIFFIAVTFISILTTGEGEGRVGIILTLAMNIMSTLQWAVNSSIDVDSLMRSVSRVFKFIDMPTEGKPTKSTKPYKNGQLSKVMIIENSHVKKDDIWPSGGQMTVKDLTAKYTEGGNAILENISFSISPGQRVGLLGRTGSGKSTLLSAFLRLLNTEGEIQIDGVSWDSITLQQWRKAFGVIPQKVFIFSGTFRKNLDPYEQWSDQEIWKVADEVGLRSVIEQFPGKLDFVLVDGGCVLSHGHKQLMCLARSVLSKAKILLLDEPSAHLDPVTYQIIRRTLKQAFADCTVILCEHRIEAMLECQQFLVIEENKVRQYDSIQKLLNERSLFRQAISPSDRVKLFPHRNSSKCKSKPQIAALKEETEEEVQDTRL
Kind of experiment: TECC24 AUC fold over DMSO @10 μM, CFTR-mediated transepithelial chloride transport in CF-HBE cells. Particulars: test agent AUC divided by DMSO vehicle AUC, primary CF-HBE cells, ΔF508 homozygous donor, 48 hours incubation. Format: cell-based. The essentials:
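Primary ΔF508-homozygous CF bronchial epithelial cells on inserts were incubated 48 h at 36.5 °C with compound in IL-13-containing medium. VT and TEER were then recorded in current-clamp mode (pH 7.4 HEPES bath) with benzamil 10 μM, forskolin 10 μM, then CFTR inhibitor-172 20 μM. The IEQ AUC between forskolin and inhibitor was divided by vehicle AUC.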

T1 sequence (P13569 423-646 limits assumed): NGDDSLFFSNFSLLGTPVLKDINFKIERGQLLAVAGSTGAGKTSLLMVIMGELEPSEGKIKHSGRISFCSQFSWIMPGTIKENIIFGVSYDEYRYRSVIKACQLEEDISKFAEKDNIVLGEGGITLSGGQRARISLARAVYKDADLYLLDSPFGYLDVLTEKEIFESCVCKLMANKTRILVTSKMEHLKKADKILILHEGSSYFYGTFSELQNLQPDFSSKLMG

Consider `CC1(C)CCCC(C)(c2cccc(CCC(=O)O)c2)c2nc(n[nH]2)-c2cc(ccc2F)Oc2c(F)cc3[nH]ccc3c2CCS(=O)(=O)C1` (single isomer, unassigned) [Compound 63B, 3-[3-(22,28-difluoro-6,10,10-trimethyl-12,12-dioxo-24-oxa-12λ6-thia-3,4,19,30-tetrazapentacyclo[23.3.1.12,5.015,23.016,20]triaconta-1(29),2,5(30),15,17,20,22,25,27-nonaen-6-yl)phenyl]propanoic Acid], for which the “DSLS 3D (100 μM ΔT)” value at NBD1 is “C (a value greater than 10 °C and less than or equal to 25 °C is marked “C”)”. The “TECC (AUC, 10 μM)” value on CFTR is “C (a value between 20 and 80 is marked “C”)”.

Turning to `Cc1cnn2c1-c1cc(ccc1F)Oc1c(F)cc3[nH]ccc3c1CCS(=O)(=O)CC(C)(C)CCCC2c1cccc(CCC(=O)O)c1` (single isomer, unassigned) [Compound 65A, 3-[3-(23,29-Difluoro-3,11,11-trimethyl-13,13-dioxo-25-oxa-13λ6-thia-5,6,20-triazapentacyclo[24.3.1.02,6.016,24.017,21]triaconta-1(30),2,4,16,18,21,23,26,28-nonaen-7-yl)phenyl]propanoic acid], the “DSLS 3D (100 μM ΔT)” value on NBD1 is “B (a value above 5 °C and less than or equal to 10 °C is marked “B”)”. Further, the “TECC (AUC, 10 μM)” value at CFTR is “A (a TECC value less than 12 is marked “A”)”.

For the compound `Cc1cnn2c1-c1cc(ccc1F)Oc1c(F)cc3[nH]ccc3c1CCS(=O)(=O)CC(C)(C)CCCC2c1cccc(CCC(=O)O)c1` (single isomer, unassigned) [Compound 65B, 3-[3-(23,29-Difluoro-3,11,11-trimethyl-13,13-dioxo-25-oxa-13λ6-thia-5,6,20-triazapentacyclo[24.3.1.02,6.016,24.017,21]triaconta-1(30),2,4,16,18,21,23,26,28-nonaen-7-yl)phenyl]propanoic acid], on NBD1, the “DSLS 3D (100 μM ΔT)” value was “C (a value greater than 10 °C and less than or equal to 25 °C is marked “C”)”. For the same compound, the “TECC (AUC, 10 μM)” value at CFTR is recorded as “A (a TECC value less than 12 is marked “A”)”.

With `CC(CC(=O)O)c1cccc(C2(C)CCOC(C)(C)CS(=O)(=O)CCc3c(c(F)cc4[nH]ccc34)Oc3ccc(F)c(c3)-c3nc2nn3C)c1` (single isomer, unassigned) [Compound 72A, 3-[3-(22,28-difluoro-3,6,10,10-tetramethyl-12,12-dioxo-9,24-dioxa-12lambda6-thia-3,4,19,30-tetrazapentacyclo-[23.3.1.12,5.015,23.016,20]triaconta-1(29),2(30),4,15,17,20,22,25,27-nonaen-6-yl)phenyl]-butanoic Acid], the “DSLS 3D (100 μM ΔT)” value at NBD1 is “C (a value greater than 10 °C and less than or equal to 25 °C is marked “C”)”. At CFTR, the “TECC (AUC, 10 μM)” value is reported as “A (a TECC value less than 12 is marked “A”)”.

Turning to `CC(CC(=O)O)c1cccc(C2(C)CCOC(C)(C)CS(=O)(=O)CCc3c(c(F)cc4[nH]ccc34)Oc3ccc(F)c(c3)-c3nc2nn3C)c1` (single isomer, unassigned) [Compound 72B, 3-[3-(22,28-difluoro-3,6,10,10-tetramethyl-12,12-dioxo-9,24-dioxa-12lambda6-thia-3,4,19,30-tetrazapentacyclo-[23.3.1.12,5.015,23.016,20]triaconta-1(29),2(30),4,15,17,20,22,25,27-nonaen-6-yl)phenyl]-butanoic Acid], the “DSLS 3D (100 μM ΔT)” value at NBD1 was “A (an ΔTagg value less than or equal to 5 °C is marked “A”)”. Further, on CFTR, the “TECC (AUC, 10 μM)” value is listed as “A (a TECC value less than 12 is marked “A”)”.

Take `Cn1nc2nc1-c1cc(ccc1F)Oc1c(F)cc3[nH]ccc3c1CCS(=O)(=O)CC(C)(C)OCCC2(C)c1cccc(CCC(=O)O)c1` (single isomer, unassigned) [Compound 73A, 3-[3-(22,28-difluoro-3,6,10,10-tetramethyl-12,12-dioxo-9,24-dioxa-12lambda6-thia-3,4,19,30-tetrazapentacyclo-[23.3.1.12,5.015,23.016,20]triaconta-1(29),2(30),4,15,17,20,22,25,27-nonaen-6-yl)phenyl]-propanoic Acid]: the “DSLS 3D (100 μM ΔT)” value on NBD1 is “C (a value greater than 10 °C and less than or equal to 25 °C is marked “C”)”. Moreover, at CFTR, the “TECC (AUC, 10 μM)” value is given as “A (a TECC value less than 12 is marked “A”)”.

For `Cn1nc2nc1-c1cc(ccc1F)Oc1c(F)cc3[nH]ccc3c1CCS(=O)(=O)CC(C)(C)OCCC2(C)c1cccc(CCC(=O)O)c1` (single isomer, unassigned) [Compound 73B, 3-[3-(22,28-difluoro-3,6,10,10-tetramethyl-12,12-dioxo-9,24-dioxa-12lambda6-thia-3,4,19,30-tetrazapentacyclo-[23.3.1.12,5.015,23.016,20]triaconta-1(29),2(30),4,15,17,20,22,25,27-nonaen-6-yl)phenyl]-propanoic Acid], the “DSLS 3D (100 μM ΔT)” value at NBD1 was “A (an ΔTagg value less than or equal to 5 °C is marked “A”)”. Besides, the “TECC (AUC, 10 μM)” value at CFTR was “B (a value between 12-20 is marked “B”)”.

With `CC(CC(=O)O)c1cccc(C2(C)CCCC(C)(C)CS(=O)(=O)CCc3c(c(F)cc4[nH]ccc34)Oc3ccc(F)c(c3)-c3nc2nn3C)c1` (single isomer, unassigned) [Compound 79A, 3-[3-(22,28-difluoro-3,6,10,10-tetramethyl-12,12-dioxo-24-oxa-12lambda6-thia-3,4,19,30-tetrazapentacyclo[23.3.1.12,5.015,23.016,20]triaconta-1(29),2(30),4,15,17,20,22,25,27-nonaen-6-yl)phenyl]butanoic Acid], the “DSLS 3D (100 μM ΔT)” value at NBD1 is “C (a value greater than 10 °C and less than or equal to 25 °C is marked “C”)”. Further, on CFTR, the “TECC (AUC, 10 μM)” value is “C (a value between 20 and 80 is marked “C”)”.

Consider `CC(CC(=O)O)c1cccc(C2(C)CCCC(C)(C)CS(=O)(=O)CCc3c(c(F)cc4[nH]ccc34)Oc3ccc(F)c(c3)-c3nc2nn3C)c1` (single isomer, unassigned) [Compound 79B, 3-[3-(22,28-difluoro-3,6,10,10-tetramethyl-12,12-dioxo-24-oxa-12lambda6-thia-3,4,19,30-tetrazapentacyclo[23.3.1.12,5.015,23.016,20]triaconta-1(29),2(30),4,15,17,20,22,25,27-nonaen-6-yl)phenyl]butanoic Acid], for which the “DSLS 3D (100 μM ΔT)” value on NBD1 was “B (a value above 5 °C and less than or equal to 10 °C is marked “B”)”. For the same compound, at CFTR, the “TECC (AUC, 10 μM)” value is recorded as “A (a TECC value less than 12 is marked “A”)”.

Take `O=C(O)CCc1cccc(C2NC(=O)CCCS(=O)(=O)CCc3c(c(F)cc4[nH]ccc34)Oc3ccc(F)c(c3)-c3ncc2[nH]3)c1` (single isomer, unassigned) [Compound 80, 3-[3-[22,28-difluoro-8,12,12-trioxo-24-oxa-12lambda6-thia-3,7,19,30-tetrazapentacyclo[23.3.1.12,5.015,23.016,20]triaconta-1(29),2,4,15,17,20,22,25,27-nonaen-6-yl]phenyl]propanoic acid]: the “DSLS 3D (100 μM ΔT)” value at NBD1 was “B (a value above 5 °C and less than or equal to 10 °C is marked “B”)”. Also, on CFTR, the “TECC (AUC, 10 μM)” value is “A (a TECC value less than 12 is marked “A”)”.
